The values that follow are results of earlier work, collected in patent US20070196901A1, “Kahalalide-producing bacteria” (priority 2003, published 2007).

In series [1] the test system is AIDS-opportunistic infection pathogens. Conditions: against AIDS-opportunistic infection pathogens, compared with reference drugs.
For the next series, the system named is HIV-1. Conditions: read-out: HIV-1 EC50; antiviral.

As for kahalalide F [KF], in series [1], the antifungal activity entry is “comparable to the activity of the drugs Amphotericin B and Ketoconazole/Rifampin”. Moreover, the “efficacy in clinical trials against prostate cancer” value in the series with prostate cancer was “effective”. For the same substance, the half-maximal effective concentration (EC50) with HIV-1 is 14.2 µM. The “inhibition of M. tuberculosis” value with M. tuberculosis was “moderately inhibitory”.
